The structures appear in SMILES notation.

The target in one experiment is T1, CK1α (Homo sapiens, UniProt P48729+Q96SW2).
T1 construct: CSNK1A1-HiBit KI HEK293(LgBit) Cells; host or cells: HEK293(LgBit) knock-in cells
As to the kind of experiment: HiBiT degradation assay, CK1α, Procedure A. The experiment is classed as cell-based. In short, it runs like this:
(§1)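 Cells in DMEM+10% FBS at 1×10^6 cells/ml were added to pre-spotted compound (10-point dose response, 10 μM to 0.005 μM, 0.1% DMSO) and incubated 6 h at 37° C. Nano-Glo HiBiT lytic reagent was added and luminescence read. DC50 and Ymin came from 4-parameter curve fits.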
For orientation: The HiBiT peptide binds its large partner to form an active luciferase.

The next experiment has as its target GSPT1 (Homo sapiens, UniProt P15170+Q96SW2). As to the kind of experiment: HiBiT degradation assay, GSPT1, Procedure A. The experiment is classed as cell-based. More on the design: HiBit-GSPT1 KI HEK293(LgBit) Cells; host or cells: HEK293(LgBit) knock-in cells. In short, it runs like this: as §1

T1 sequence (P48729 whole entry): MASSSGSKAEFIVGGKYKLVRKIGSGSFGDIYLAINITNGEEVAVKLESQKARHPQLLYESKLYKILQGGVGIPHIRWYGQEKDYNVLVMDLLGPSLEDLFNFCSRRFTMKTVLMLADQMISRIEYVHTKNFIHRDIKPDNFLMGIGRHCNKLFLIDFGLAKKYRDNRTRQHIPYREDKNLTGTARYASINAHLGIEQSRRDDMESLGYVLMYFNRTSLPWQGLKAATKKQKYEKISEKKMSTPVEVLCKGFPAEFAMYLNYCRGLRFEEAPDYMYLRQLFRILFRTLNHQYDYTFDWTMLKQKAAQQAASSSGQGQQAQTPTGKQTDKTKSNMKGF
T1 sequence (Q96SW2 whole entry): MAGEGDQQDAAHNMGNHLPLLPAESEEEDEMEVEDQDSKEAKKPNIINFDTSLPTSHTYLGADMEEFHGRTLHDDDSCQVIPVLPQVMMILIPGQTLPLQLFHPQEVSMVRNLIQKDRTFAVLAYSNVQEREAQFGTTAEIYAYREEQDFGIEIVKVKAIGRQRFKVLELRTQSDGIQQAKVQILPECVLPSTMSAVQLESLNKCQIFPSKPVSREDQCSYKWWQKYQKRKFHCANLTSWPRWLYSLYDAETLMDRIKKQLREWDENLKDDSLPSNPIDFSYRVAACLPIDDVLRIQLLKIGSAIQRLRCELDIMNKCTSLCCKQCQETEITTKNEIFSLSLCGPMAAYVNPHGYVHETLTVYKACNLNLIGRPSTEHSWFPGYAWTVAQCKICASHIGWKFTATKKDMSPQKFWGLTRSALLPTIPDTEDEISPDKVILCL
T1 sequence (Q16531 whole entry partner): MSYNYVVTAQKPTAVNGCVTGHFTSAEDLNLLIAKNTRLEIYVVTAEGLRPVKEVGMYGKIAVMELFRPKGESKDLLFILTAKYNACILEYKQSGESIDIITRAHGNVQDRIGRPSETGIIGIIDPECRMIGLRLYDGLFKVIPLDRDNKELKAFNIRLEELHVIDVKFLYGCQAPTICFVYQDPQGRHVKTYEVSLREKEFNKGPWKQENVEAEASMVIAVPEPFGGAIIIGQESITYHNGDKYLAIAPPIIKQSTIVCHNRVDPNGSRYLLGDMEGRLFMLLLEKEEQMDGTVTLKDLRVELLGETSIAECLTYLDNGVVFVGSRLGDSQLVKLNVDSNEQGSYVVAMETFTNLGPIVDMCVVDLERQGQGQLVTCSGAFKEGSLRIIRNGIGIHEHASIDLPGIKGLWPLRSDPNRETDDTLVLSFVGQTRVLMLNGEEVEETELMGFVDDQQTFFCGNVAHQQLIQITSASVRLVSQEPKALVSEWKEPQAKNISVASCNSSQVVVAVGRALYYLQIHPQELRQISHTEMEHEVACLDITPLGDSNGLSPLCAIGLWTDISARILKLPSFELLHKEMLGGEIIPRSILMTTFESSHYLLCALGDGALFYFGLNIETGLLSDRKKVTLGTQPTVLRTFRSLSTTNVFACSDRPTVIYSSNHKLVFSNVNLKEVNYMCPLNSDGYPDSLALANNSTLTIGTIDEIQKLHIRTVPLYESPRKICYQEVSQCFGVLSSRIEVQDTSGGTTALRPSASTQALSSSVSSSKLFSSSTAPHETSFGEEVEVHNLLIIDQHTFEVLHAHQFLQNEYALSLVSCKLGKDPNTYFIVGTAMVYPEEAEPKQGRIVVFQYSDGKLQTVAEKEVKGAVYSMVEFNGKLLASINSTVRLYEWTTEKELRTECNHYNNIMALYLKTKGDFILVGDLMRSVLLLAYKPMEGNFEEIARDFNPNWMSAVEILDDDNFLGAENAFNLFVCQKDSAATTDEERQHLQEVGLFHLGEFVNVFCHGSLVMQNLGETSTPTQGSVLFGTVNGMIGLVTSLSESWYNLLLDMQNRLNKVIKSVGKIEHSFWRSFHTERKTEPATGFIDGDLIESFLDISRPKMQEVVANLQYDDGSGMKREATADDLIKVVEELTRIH
Sequence of GSPT1 (P15170 whole entry): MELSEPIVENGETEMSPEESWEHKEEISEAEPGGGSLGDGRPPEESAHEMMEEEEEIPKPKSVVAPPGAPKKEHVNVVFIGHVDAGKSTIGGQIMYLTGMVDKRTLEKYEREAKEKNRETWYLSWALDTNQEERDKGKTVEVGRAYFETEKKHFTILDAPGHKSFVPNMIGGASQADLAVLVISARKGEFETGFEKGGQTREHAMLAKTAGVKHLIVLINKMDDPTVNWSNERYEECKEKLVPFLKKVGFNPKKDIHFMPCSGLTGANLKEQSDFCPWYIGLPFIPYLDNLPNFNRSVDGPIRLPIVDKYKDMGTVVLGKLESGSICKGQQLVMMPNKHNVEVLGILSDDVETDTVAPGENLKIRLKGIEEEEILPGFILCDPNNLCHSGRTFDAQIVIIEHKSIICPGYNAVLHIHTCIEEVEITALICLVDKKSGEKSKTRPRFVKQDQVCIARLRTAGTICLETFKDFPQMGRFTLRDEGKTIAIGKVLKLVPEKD
Sequence of GSPT1 (Q96SW2 whole entry): as the sequence (Q96SW2 whole entry) above
Sequence of GSPT1 (Q16531 whole entry partner): as the sequence (Q16531 whole entry partner) above

For `Cc1ccc(-c2c(-c3ccc4c(c3)CN(C3CCC(=O)NC3=O)C4=O)cnn2C)o1` (stereo not drawn) [Example 365], at CK1α (six hours incubation), the “CK1α Ymin” value was “D (D = >10- 25% remaining)” and the DC50 was at least 25 nM. Further, at GSPT1 (six hours incubation), the DC50 was at least 25 nM and the “GSPT1 Ymin” value is reported as “F (F = >75-100% remaining)”.
As for `Cn1ncc(-c2ccc3c(c2)CN(C2CCC(=O)NC2=O)C3=O)c1-c1ccc(C#N)cc1F` (stereo not drawn) [Example 225], at CK1α (six hours incubation), the “CK1α Ymin” value is listed as “E (E = >25-75% remaining)” and the DC50 is at least 25 nM. For the same compound, on GSPT1 (six hours incubation), the DC50 was at least 25 nM and the “GSPT1 Ymin” value is listed as “F (F = >75-100% remaining)”.
Consider `Cc1ccc(F)cc1-c1c(-c2ccc3c(c2)CN(C2CCC(=O)NC2=O)C3=O)ncn1C` (stereo not drawn) [Example 237], for which, on CK1α (six hours incubation), the “CK1α Ymin” value is “E (E = >25-75% remaining)” and the DC50 was under 25 nM. Also, on GSPT1 (six hours incubation), the DC50 was at least 25 nM and the “GSPT1 Ymin” value is “F (F = >75-100% remaining)”.
In the case of `Cn1ncc(-c2ccc3c(c2)CN(C2CCC(=O)NC2=O)C3=O)c1-c1ccsc1Cl` (stereo not drawn) [Example 131], on CK1α (six hours incubation), the “CK1α Ymin” value was “E (E = >25-75% remaining)” and the DC50 was under 25 nM. Besides, on GSPT1 (six hours incubation), the DC50 was at least 25 nM and the “GSPT1 Ymin” value is “F (F = >75-100% remaining)”.
On to `Cc1cccc(C)c1-c1c(-c2ccc3c(c2)CN(C2CCC(=O)NC2=O)C3=O)ncn1C` (stereo not drawn) [Example 442], for which, on CK1α (six hours), the “CK1α Ymin” value is on record as “E (E = >25-75% remaining)” and the DC50 was under 25 nM. Further, at GSPT1 (six hours), the DC50 was at least 25 nM and the “GSPT1 Ymin” value is on record as “F (F = >75-100% remaining)”.
The corresponding values for `Cn1cc(-c2ccc3c(c2)CN(C2CCC(=O)NC2=O)C3=O)nc1-c1ccc(OC2CC2)cc1` (stereo not drawn) [Example 581] are “C (C = 0-10% remaining)”, under 25 nM, under 25 nM and “F (F = >75-100% remaining)”.
Consider `[2H]C([2H])([2H])n1ncc(-c2ccc3c(c2)CN(C2CCC(=O)NC2=O)C3=O)c1-c1ccc2c(c1)CCO2` (stereo not drawn) [Example 432, 3-(5-(5-(2,3-dihydrobenzofuran-5-yl)-1-(methyl-d3)-1H-pyrazol-4-yl)-1-oxoisoindolin-2-yl)piperidine-2,6-dione], for which, on CK1α (six hours), the “CK1α Ymin” value is listed as “C (C = 0-10% remaining)” and the DC50 is under 25 nM. For the same compound, on GSPT1 (six hours), the DC50 is at least 25 nM and the “GSPT1 Ymin” value is given as “F (F = >75-100% remaining)”.
In the case of `Cc1c(F)cccc1-c1c(-c2ccc3c(c2)CN(C2CCC(=O)NC2=O)C3=O)cnn1C` (stereo not drawn) [Example 125], on CK1α (six hours incubation), the “CK1α Ymin” value is on record as “E (E = >25-75% remaining)” and the DC50 is under 25 nM. Besides, on GSPT1 (six hours incubation), the 50% degradation concentration (DC50) was at least 25 nM and the “GSPT1 Ymin” value was “F (F = >75-100% remaining)”.
With `Cn1cnc(-c2ccc3c(c2)CN(C2CCC(=O)NC2=O)C3=O)c1-c1cccc(C(N)=O)c1` (stereo not drawn) [Example 248], on CK1α (six hours incubation), the “CK1α Ymin” value is reported as “D (D = >10- 25% remaining)” and the DC50 is at least 25 nM. Moreover, on GSPT1 (six hours incubation), the DC50 is at least 25 nM and the “GSPT1 Ymin” value is “E (E = >25-75% remaining)”.
Turning to `Cn1cnc(-c2ccc3c(c2)CN(C2CCC(=O)NC2=O)C3=O)c1-c1ccc(Cl)cc1Cl` (stereo not drawn) [Example 286], at CK1α (six hours incubation), the “CK1α Ymin” value was “D (D = >10- 25% remaining)” and the DC50 was under 25 nM. Also, on GSPT1 (six hours incubation), the DC50 was under 25 nM and the “GSPT1 Ymin” value is reported as “E (E = >25-75% remaining)”.
For the compound `Cn1ncc(-c2ccc3c(c2)CN(C2CCC(=O)NC2=O)C3=O)c1-c1ccc(Cl)cc1F` (stereo not drawn) [Example 79], on CK1α (six hours incubation), the “CK1α Ymin” value was “E (E = >25-75% remaining)” and the 50% degradation concentration (DC50) was under 25 nM. For the same compound, on GSPT1 (six hours incubation), the DC50 was at least 25 nM and the “GSPT1 Ymin” value is recorded as “F (F = >75-100% remaining)”.
Consider `Cn1cnc(-c2ccc3c(c2)CN(C2CCC(=O)NC2=O)C3=O)c1-c1cc2ccccc2[nH]1` (stereo not drawn) [Example 527], for which, at CK1α (six hours), the “CK1α Ymin” value is recorded as “D (D = >10- 25% remaining)” and the DC50 was under 25 nM. For the same compound, at GSPT1 (six hours), the DC50 is under 25 nM and the “GSPT1 Ymin” value is on record as “E (E = >25-75% remaining)”.

In general, DC50 refers to the midpoint of the concentration-degradation curve. A high value points to a less potent degrader.
